Measurements published in US20070129380A1.

Experiments:
Botrytis cinerea = assay: Activity against gray mold on bell pepper leaves caused by Botrytis cinerea, protective application; assay type: in vivo; details: 250 ppm active compound, sprayed to runoff, bell pepper seedlings, inoculated next day, assessed after 5 days; untreated plants 90% infected
Method: The active compounds were prepared separately as a stock solution with 0.25% by weight of active compound in acetone or DMSO. 1% by weight of the emulsifier Uniperol® EL (wetting agent having emulsifying and dispersing action based on ethoxylated alkyl-phenols) was added to this solution. The stock solutions of the active compounds were diluted with water to the desired concentration. 1) Activity Against Gray Mold on Bell Pepper Leaves Caused by Botrytis cinerea, Protective Application […] The next day, the treated plants were inoculated with a spore suspension of Botrytis cinerea, this contained 1.7×10^6 spores/ml in a 2% strength aqueous biomalt solution. The test plants were then placed in a climate-chamber at 22-24° C. and high atmospheric humidity.

[1] = test system: Pyrenophora [syn. Drechslera] teres; assay: Activity against net blotch of barley caused by Pyrenophora teres; assay type: in vivo; details: 250 ppm active compound, sprayed to runoff, barley seedlings, inoculated 24 hours after drying, assessed after 6 days; untreated plants 80% infected
Method: The active compounds were prepared separately as a stock solution with 0.25% by weight of active compound in acetone or DMSO. 1% by weight of the emulsifier Uniperol® EL (wetting agent having emulsifying and dispersing action based on ethoxylated alkyl-phenols) was added to this solution. The stock solutions of the active compounds were diluted with water to the desired concentration. 4) Activity Against Net Blotch of Barley Caused by Pyrenophora teres […] Drechslera] teres, the causative agent of net blotch. The test plants were subsequently placed in a greenhouse at temperatures of between 20 and 24° C. and a relative atmospheric humidity of 95 to 100%. After 6 days, the extent of development of the disease was determined visually in % of infection of the total leaf area.

Row | melting point | Compound | extent of the fungal infection on the leaves determined visually in % (Botrytis cinerea) | extent of development of the disease determined visually in % of infection of the total leaf area [1]
1 | 145 to 149 °C | CC(C)Nc1nc(C(N)=S)nc(Cl)c1-c1c(F)cc(F)cc1F [Compound I-4] | not infected | –
2 | 55 to 58 °C | CCN(CC)c1nc(C(N)=S)nc(Cl)c1-c1c(F)cc(F)cc1F [Compound I-19] | – | 10%
3 | 158 °C | Cc1nc(C(N)=S)nc(NC(C)C)c1-c1c(F)cc(F)cc1F [Compound I-23] | – | –

More lines, now with the values behind:

Row | Compound | melting point | extent of the fungal infection on the leaves determined visually in % (Botrytis cinerea) | extent of development of the disease determined visually in % of infection of the total leaf area [1]
4 | C[C@H](Nc1nc(C(N)=S)nc(Cl)c1-c1c(F)cc(F)cc1F)C(F)(F)F [Compound I-2, (S)-4-chloro-6-(2,2,2-trifluoro-1-methylethylamino)-5-(2,4,6-trifluorophenyl)pyrimidine-2-thiocarbamide] | – | not infected | –
5 | CC(C)Nc1nc(C(N)=S)nc(Cl)c1-c1c(F)cccc1Cl [Compound I-3] | – | not infected | –
6 | CCC(C)Nc1nc(C(N)=S)nc(Cl)c1-c1c(F)cccc1Cl (stereo not drawn) [Compound I-8, 4-sec-butylamino-6-chloro-5-(2-chloro-6-fluorophenyl)pyrimidine-2-thiocarbamide] | 147 to 150 °C | not infected | –
